Experimental data: PubChem BioAssay (NCI)
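Interpolation was linear, between the two tested concentrations surrounding the appropriate level; five concentrations were tested over 48 hours in 96-well plates. GI50 is the concentration that inhibits growth by half. TGI is the concentration that stops growth completely.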

Key:
Assay in all cases: NCI-60 cell line screen, 48 h; in the data active = GI50 below about 0.43 µM; inactive = the rest
DU-145 prostate = test system: DU-145 prostate
LOX IMVI melanoma = test system: LOX IMVI melanoma
U251 CNS = test system: U251 CNS
SW-620 colon = test system: SW-620 colon
NCI-H226 lung = test system: NCI-H226 lung
EKVX NSCLC = test system: EKVX NSCLC
SF-268 CNS = test system: SF-268 CNS
MDA-MB-231 breast = test system: MDA-MB-231 breast
CCRF-CEM leukemia = test system: CCRF-CEM leukemia
PC-3 prostate = test system: PC-3 prostate
SK-OV-3 ovarian = test system: SK-OV-3 ovarian
COLO 205 colon = test system: COLO 205 colon
NCI-H460 lung = test system: NCI-H460 lung
NCI-H522 lung = test system: NCI-H522 lung
BT-549 breast = test system: BT-549 breast
HCT-116 colon = test system: HCT-116 colon
HCT-15 colon = test system: HCT-15 colon
UACC-257 melanoma = test system: UACC-257 melanoma
TK-10 renal = test system: TK-10 renal
SF-295 CNS = test system: SF-295 CNS
OVCAR-3 ovarian = test system: OVCAR-3 ovarian
OVCAR-4 ovarian = test system: OVCAR-4 ovarian
SK-MEL-5 melanoma = test system: SK-MEL-5 melanoma
HT29 colon = test system: HT29 colon
SNB-75 CNS = test system: SNB-75 CNS
786-0 renal = test system: 786-0 renal
KM12 colon = test system: KM12 colon
OVCAR-5 ovarian = test system: OVCAR-5 ovarian
HL-60(TB) leukemia = test system: HL-60(TB) leukemia
SF-539 CNS = test system: SF-539 CNS
T-47D breast = test system: T-47D breast
SNB-19 CNS = test system: SNB-19 CNS
SK-MEL-28 melanoma = test system: SK-MEL-28 melanoma
MALME-3M melanoma = test system: MALME-3M melanoma
NCI-H23 lung = test system: NCI-H23 lung
HOP-62 NSCLC = test system: HOP-62 NSCLC
K-562 leukemia = test system: K-562 leukemia
SR leukemia = test system: SR leukemia
MCF7 breast = test system: MCF7 breast
M14 melanoma = test system: M14 melanoma
HOP-92 NSCLC = test system: HOP-92 NSCLC
SK-MEL-2 melanoma = test system: SK-MEL-2 melanoma
CAKI-1 renal = test system: CAKI-1 renal
A498 renal = test system: A498 renal
RPMI-8226 leukemia = test system: RPMI-8226 leukemia
UACC-62 melanoma = test system: UACC-62 melanoma
A549 NSCLC = test system: A549 NSCLC
IGROV1 ovarian = test system: IGROV1 ovarian
HCC-2998 colon = test system: HCC-2998 colon
RXF 393 renal = test system: RXF 393 renal
ACHN renal = test system: ACHN renal
UO-31 renal = test system: UO-31 renal
OVCAR-8 ovarian = test system: OVCAR-8 ovarian
MOLT-4 leukemia = test system: MOLT-4 leukemia
HS 578T breast = test system: HS 578T breast
NCI/ADR-RES ovarian = test system: NCI/ADR-RES ovarian
MDA-MB-435 = test system: MDA-MB-435
SN12C renal = test system: SN12C renal

Cn1cc(-c2csc(-c3c[nH]c4ccc(F)cc34)n2)c2cccnc21
> 68.4 µM: TGI (786-0 renal) | TGI (MCF7 breast)
> 60.8 µM: TGI (CAKI-1 renal)
3.66 µM: TGI (HT29 colon)
active: GI50 (HT29 colon) 0.355 µM | GI50 (MALME-3M melanoma) 0.236 µM | GI50 (K-562 leukemia) 0.416 µM | GI50 (MDA-MB-435) 0.194 µM
65.7 µM: TGI (SNB-19 CNS)
> 45.4 µM: TGI (A549 NSCLC)
35.2 µM: TGI (HOP-62 NSCLC)
> 48.9 µM: TGI (HOP-92 NSCLC)
31.6 µM: TGI (TK-10 renal)
> 39.9 µM: TGI (IGROV1 ovarian)
27 µM: TGI (SF-295 CNS)
17 µM: TGI (U251 CNS)
40 µM: TGI (SNB-75 CNS)
8.35 µM: TGI (MALME-3M melanoma)
> 74.8 µM: TGI (SK-OV-3 ovarian)
> 60.3 µM: TGI (PC-3 prostate)
> 45.3 µM: TGI (SK-MEL-5 melanoma)
inactive: GI50 (DU-145 prostate) 14.3 µM | GI50 (LOX IMVI melanoma) 1.45 µM | GI50 (U251 CNS) 1.52 µM | GI50 (SW-620 colon) 0.749 µM | GI50 (NCI-H226 lung) 5.22 µM | GI50 (EKVX NSCLC) 8.87 µM | GI50 (SF-268 CNS) 7.73 µM | GI50 (MDA-MB-231 breast) 5.79 µM | GI50 (CCRF-CEM leukemia) 6.26 µM | GI50 (PC-3 prostate) 6.94 µM | GI50 (SK-OV-3 ovarian) 10.5 µM | GI50 (COLO 205 colon) 1.22 µM | GI50 (NCI-H460 lung) 0.612 µM | GI50 (NCI-H522 lung) 0.463 µM | GI50 (HCT-116 colon) 0.729 µM | GI50 (HCT-15 colon) 0.737 µM | GI50 (UACC-257 melanoma) 3.81 µM | GI50 (TK-10 renal) 5.08 µM | GI50 (SF-295 CNS) 0.755 µM | GI50 (OVCAR-3 ovarian) 0.62 µM | GI50 (OVCAR-4 ovarian) 12.3 µM | GI50 (SK-MEL-5 melanoma) 1.27 µM | GI50 (SNB-75 CNS) 2.61 µM | GI50 (786-0 renal) 13.9 µM | GI50 (KM12 colon) 0.704 µM | GI50 (OVCAR-5 ovarian) > 69.3 µM | GI50 (HL-60(TB) leukemia) 5.85 µM | GI50 (SF-539 CNS) 5.41 µM | GI50 (T-47D breast) 2.33 µM | GI50 (SNB-19 CNS) 6.25 µM | GI50 (SK-MEL-28 melanoma) 11.4 µM | GI50 (NCI-H23 lung) 11.9 µM | GI50 (HOP-62 NSCLC) 3.11 µM | GI50 (SR leukemia) 0.57 µM | GI50 (MCF7 breast) 1.69 µM | GI50 (M14 melanoma) 0.787 µM | GI50 (HOP-92 NSCLC) 4.25 µM | GI50 (SK-MEL-2 melanoma) 2.78 µM | GI50 (CAKI-1 renal) 1.42 µM | GI50 (A498 renal) 18.6 µM | GI50 (RPMI-8226 leukemia) > 25.4 µM | GI50 (UACC-62 melanoma) 1.98 µM | GI50 (A549 NSCLC) 1.09 µM | GI50 (IGROV1 ovarian) 0.804 µM | GI50 (HCC-2998 colon) 21.9 µM | GI50 (RXF 393 renal) 5.65 µM | GI50 (ACHN renal) 8.87 µM | GI50 (UO-31 renal) 5.37 µM | GI50 (OVCAR-8 ovarian) 2.99 µM | GI50 (MOLT-4 leukemia) 10.6 µM | GI50 (HS 578T breast) > 56.6 µM | GI50 (NCI/ADR-RES ovarian) 0.45 µM | GI50 (SN12C renal) 10.8 µM
> 47.4 µM: TGI (NCI-H460 lung)
> 100 µM: TGI (DU-145 prostate) | TGI (LOX IMVI melanoma) | TGI (SW-620 colon) | TGI (NCI-H226 lung) | TGI (EKVX NSCLC) | TGI (MDA-MB-231 breast) | TGI (CCRF-CEM leukemia) | TGI (BT-549 breast) | TGI (HCT-116 colon) | TGI (HCT-15 colon) | TGI (UACC-257 melanoma) | TGI (OVCAR-4 ovarian) | TGI (KM12 colon) | TGI (OVCAR-5 ovarian) | TGI (HL-60(TB) leukemia) | TGI (SK-MEL-28 melanoma) | TGI (NCI-H23 lung) | TGI (K-562 leukemia) | TGI (M14 melanoma) | TGI (A498 renal) | TGI (RPMI-8226 leukemia) | TGI (UACC-62 melanoma) | TGI (HCC-2998 colon) | TGI (ACHN renal) | TGI (MOLT-4 leukemia) | TGI (HS 578T breast) | TGI (NCI/ADR-RES ovarian) | TGI (SN12C renal)
47.3 µM: TGI (OVCAR-8 ovarian)
> 56.4 µM: TGI (COLO 205 colon)
17.5 µM: TGI (OVCAR-3 ovarian)
> 29.5 µM: TGI (SK-MEL-2 melanoma)
> 73.2 µM: TGI (T-47D breast)
> 70.5 µM: TGI (RXF 393 renal)
> 81.2 µM: TGI (SR leukemia)
> 93.6 µM: TGI (SF-268 CNS)
0.586 µM: TGI (MDA-MB-435)
> 59.5 µM: TGI (SF-539 CNS)
14.7 µM: TGI (NCI-H522 lung)
32.2 µM: TGI (UO-31 renal)
